The test system of data set [1] is Gram-positive and Gram-negative bacterium. Kind of data set: Antimicrobial activity under several salt concentrations (summary in words). The format is cell-based. The protocol:
Escherichia coli strain (ATCC 25922), Staphylococcus aureus subsp strain (ATCC 25923, methicillin-resistant), and Pseudomonas aeruginosa Migula strain (ATCC 27853, ampicillin-resistant) were used to test the antibacterial activity of the peptides. Bacteria were cultured in sterilized Mueller-Hinton (MH) culturing medium at 200 rpm and 37° C. for 8 hours.
The antibacterial activities were determined by the standard broth microdilution method of National Committee for Clinical Laboratory Standards with the LYM broth. The LYM broth contains 5.4 mM KCl, 5.6 mM Na2HPO4, 0.5 mM MgSO4, and 1.0 mM sodium citrate. In addition, 0.4 mg of ZnCl2, 2.0 mg of FeCl3. 6H2O, 0.1 mg of CuSO4. 5H2O, 0.1 mg of MnSO4.H2O, 0.1 mg of Na2B4O7.10H2O, 700 mg of amino acid mixtures without tryptophan (Clontech), and 20 mg of L-Tryptophan were added per liter of medium. A vitamin mixture (100×, Sigma) and glucose at final concentration of 2% were also added.
1 μl peptide solutions (ranging from 5000 μg/ml to 78 μg/ml in serial dilution) was prepared and mixed with 99 μl inoculum (5×10^5 CFU/ml) in polypropylene 96-well plate. The turbidity at OD 600 nm was measured by ELISA plate reader (Thermo Max, Molecular Devices, Sunnyvale, Calif.). The absorbance of culture medium and inoculum suspension without peptides were used as the negative and positive control, respectively. […]

A further data set concerns caspase 3 in HFW cells. The data set can be described thus: Western blot for activated caspase 3, HFW. The format is cell-based, human.
The test system of another data set is PC9 cells. The data set can be described thus: Cell live image (phase-contrast and immunofluorescence), PC9. The format is cell-based, human. To be noted: 12 μM, 5 minutes. The protocol: (§1) PC9 and HFW cells (˜10^5 cells) were pre-seeded in 6-cm polystyrene dishes for 24 hours. Cell nuclear is labeled by 4′,6-diamidino-2-phenylindole (DAPI) with a final concentration of 10 μg/ml. After 10 minutes of incubation, the cells were washed by PBS. FITC-K4R2Nal2S1-NH2 was added to the dishes with the final concentration of 12 μM. After incubation for 5, 10, 20 minutes or 1 hour at 37° C., the cells were washed with PBS. The images of FITC-K4R2Nal2S1-NH2 in PC9 cells and HFW cells were observed using the Inverted Fluorescent Microscope Zeiss/Observer.Z1.
(§2) To investigate the mode of actions of K4R2Nal2-S1 peptide on human cancer cell line (PC9) and human fibroblast (HFW), cells were treated with FITC-labeled K4R2-Nal2-S1. Nucleus was labeled with DAPI, and the blue signal was observed by UV exciting light. The fluorescence distribution of FITC-labeled K4R2-Nal2-S1 peptide on cell membrane was visualized by the inverted fluorescent microscope.

Another data set relates to HFW cells. Kind of data set: Cell live image (phase-contrast and immunofluorescence), HFW. The data set is classed as cell-based, human. To be noted: 12 μM, 5 minutes. The protocol: as §1, §2
Another data set relates to human fibroblast (HFW). The data set can be described thus: MTT cytotoxicity to normal fibroblasts. The data set is classed as cell-based. To be noted: MTT assay. The protocol:
Human lung cancer line PC9 and A549, oral squamous cell carcinoma cell line OECM-1 were cultured in RPMI medium supplemented with 10% fetal bovine serum and antibiotic. Human tongue carcinoma cell line SAS, oral cancer cell line C9, and human diploid fibroblast (HFW) were cultured in DMEM medium supplemented with 10% fetal bovine serum and antibiotic. Cells were cultured in a humidified incubator containing 5% CO2 at 37° C.
The MTT assay was employed to determine the in vitro cytotoxicity. All cancer cell lines were seeded in 96-well plate with concentration 5000 cells/100 μl/well and incubated for 24 hours. HFW was seeded with 8000 cells/100 μl/well.
After medium was removed, 100 μl fresh medium containing peptide (ranging from 50 μM to 3.13 μM, HFW was treated with 75 μM and 100 μM peptide additionally) was added to the wells. Following 3, 12 or 24 hour incubation, fresh medium with MTT (0.5 mg/ml) was replaced and incubated for 3 hours. After medium/MTT was removed, DMSO was added at 100 μl for dissolving the formazan crystal. Cell survival rate was calculated by measuring the absorbance at 540 nm using Multi-labeled Microplate Reader (VICTOR3). For cancer cells, medium mixed with H2O2 (aq) represented positive control (all cells died) while medium only represented negative control. For normal cells, medium only represented positive control (all cells lived) while medium mixed with H2O2 (aq) represented negative control (all cells died).
The cytotoxicities of S1 and its analogs on human lung cancer cells (i.e, PC9, PC9-G and A549), human oral cancer cells (i.e, C9, OECM-1, and SAS), and human fibroblast (HFW) were evaluated by MTT assay for 3, 12 and 24 hours.

The next data set has as its system HaCaT cells. Kind of data set: Cell migration assay (in vitro wound healing assay). To be noted: different concentrations of peptide; 12 and 24 h. The format is cell-based. The protocol: HaCaT cells (40,000) suspended in DMEM medium supplemented with 10% fetal bovine serum were seeded on each side of an ibidi culture insert (ibidi, Germany). Inserts were placed into 24-well plate. After incubated at 37° C. and 5% CO2 overnight, inserts were removed and 1 ml of serum-free DMEM medium supplemented with different concentrations of peptide was added. Medium without peptide and with 100 ng/ml EGF (epidermal growth factor) were negative and positive controls. At 0, 12 and 24 h, the images of injury area were observed using the Inverted Fluorescent Microscope Zeiss/Observer.Z1 (10×). Wound area was estimated by Adobe Photoshop. The repairing rate was calculated: repairing rate=(areat0−areat12,24)/areat0, wherein t represents time.

The text below walks through data of US10093699B2, “Peptides with antimicrobial, anticancer and/or wound-healing promoting activities, pharmaceutical compositions containing the same, and use of the peptides with antimicrobial, anticancer and/or wound-healing promoting activities” (priority 2015, dated 2018).

Structures are written as SMILES. Where a SMILES comes first, the peptide text is derived from it. [ ]: non-standard residue; d: D form. 2Nal = N[C@@H](Cc1ccc2ccccc2c1)C(=O)O

For the molecule `CC(=O)N[C@@H](CCCCN)C(=O)N[C@@H](CCCCN)C(=O)N[C@@H](CCCCN)C(=O)N[C@@H](CCCCN)C(=O)N[C@@H](CCCNC(=N)N)C(=O)N[C@@H](CCCNC(=N)N)C(=O)N[C@@H](Cc1ccc2ccccc2c1)C(=O)N[C@@H](Cc1ccc2ccccc2c1)C(=O)N[C@@H](CCCCN)C(=O)N[C@@H](CCCCN)C(=O)N[C@@H](Cc1c[nH]c2ccccc12)C(=O)N[C@@H](CCCNC(=N)N)C(=O)N[C@@H](CCCCN)C(=O)N[C@@H](Cc1c[nH]c2ccccc12)C(=O)N[C@@H](CC(C)C)C(=O)N[C@@H](C)C(=O)N[C@@H](CCCCN)C(=O)N[C@@H](CCCCN)C(N)=O` [K4R2-Nal2-S1, Ac-KKKKRR-Nal-Nal-KKWRKWLAKK-NH2] (Ac-KKKKRR[2Nal][2Nal]KKWRKWLAKK-NH2), in data set [1] (LYM broth condition), the effectiveness against bacterium result is reported as “very effective”. The “antimicrobial activities in high-salt conditions” value in data set [1] (addition of 100 or 200 mM NaCl) is on record as “promising activities”. The “caspase 3 activation (immunoblotting)” value in the data set with caspase 3 in HFW cells was “not in HFW cells”. The “cellular swelling (phase-contrast microscopy)” value is reported as “induced cellular swelling” in the data set with PC9 cells and “not in HFW cells” in the data set on HFW cells. The “degrees of cytotoxicities to HFW (rank order)” value with human fibroblast (HFW) is “S1 peptide<K4R2-Nal2-S1 peptide<K6-Nal2-S1 peptide<Nal2-S1 peptide”. For the same molecule, in the data set with HaCaT cells, the “wound healing (repairing rate) compared to negative control” value is recorded as “better effects of wound healing”.
